Laboratory results as given in US8952024B2, “Herbicidal pyrimidone derivatives” (E I du Pont de Nemours and Company, priority 2009, dated 2015).

Columns and labels:
Assay type in all cases: in vivo
[1] = system: bermudagrass (Cynodon dactylon); experiment: Test B pre-/postemergence plant response; conditions: for Bermudagrass plant response rating (0 to 100 scale): 62 g ai/ha, 0 is no effect
How it was run: (§1)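 Each species received compound formulated in non-phytotoxic solvent with surfactant, either at planting into a loam and sand blend or as a foliar spray once plants reached 2 to 18 cm in peat-based medium. Plants stayed in the greenhouse 13 to 15 days before visual evaluation against controls, scored 0 (no effect) to 100 (complete control).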

[2] = system: cocklebur (Xanthium strumarium); experiment: Test B pre-/postemergence plant response; conditions: for Cocklebur plant response rating (0 to 100 scale): 62 g ai/ha, 0 is no effect
How it was run: as §1

[3] = system: corn (Zea mays); experiment: Test B pre-/postemergence plant response; conditions: for Corn plant response rating (0 to 100 scale): 62 g ai/ha, 0 is no effect
How it was run: as §1

[4] = system: giant foxtail (Setaria faberii); experiment: Test B pre-/postemergence plant response; conditions: for Foxtail, Giant plant response rating (0 to 100 scale): 62 g ai/ha, 0 is no effect
How it was run: as §1

[5] = system: green foxtail (Setaria viridis); experiment: Test B pre-/postemergence plant response; conditions: for Foxtail, Green plant response rating (0 to 100 scale): 62 g ai/ha, 0 is no effect
How it was run: as §1

[6] = system: johnsongrass (Sorghum halepense); experiment: Test B pre-/postemergence plant response; conditions: for Johnsongrass plant response rating (0 to 100 scale): 62 g ai/ha, 0 is no effect
How it was run: as §1

[7] = system: kochia (Kochia scoparia); experiment: Test B pre-/postemergence plant response; conditions: for Kochia plant response rating (0 to 100 scale): 62 g ai/ha, 0 is no effect
How it was run: as §1

[8] = system: lambsquarters (Chenopodium album); experiment: Test B pre-/postemergence plant response; conditions: for Lambsquarters plant response rating (0 to 100 scale): 62 g ai/ha, 0 is no effect
How it was run: as §1

[9] = system: pigweed (Amaranthus retroflexus); experiment: Test B pre-/postemergence plant response; conditions: for Pigweed plant response rating (0 to 100 scale): 62 g ai/ha, 0 is no effect
How it was run: as §1

[10] = system: ragweed (common ragweed, Ambrosia elatior); experiment: Test B pre-/postemergence plant response; conditions: for Ragweed plant response rating (0 to 100 scale): 62 g ai/ha, 0 is no effect
How it was run: as §1

[11] = system: soybean (Glycine max); experiment: Test B pre-/postemergence plant response; conditions: for Soybean plant response rating (0 to 100 scale): 62 g ai/ha, 0 is no effect
How it was run: as §1

[12] = system: wild oat (Avena fatua); experiment: Test B pre-/postemergence plant response; conditions: for Oat, Wild plant response rating (0 to 100 scale): 62 g ai/ha, 0 is no effect
How it was run: as §1

[13] = system: barnyardgrass (Echinochloa crus-galli); experiment: Test B flooded paddy test; conditions: for Plant response rating, Flood, Barnyardgrass: 250 g ai/ha, flooded paddy test, visual rating on 0 to 100 scale (0 no effect, 100 complete control) after 13 to 15 days; for Plant response rating, Barnyardgrass: Flood (flooded paddy test), 13 to 15 days; for Barnyardgrass plant response rating: Flood, 31 g ai/ha, scale 0 to 100 (0 no effect, 100 complete control)
How it was run: (§2)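 Post-flood paddy application: compounds are introduced into water 3 cm deep over the soil, reaching plants at the 2-leaf stage. The water level is maintained, and after 13–15 days under greenhouse conditions, response is judged by eye relative to controls, where 100 means complete control.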

[14] = system: ducksalad (Heteranthera limosa); experiment: Test B flooded paddy test; conditions: for Plant response rating, Flood, Ducksalad: 250 g ai/ha, flooded paddy test, visual rating on 0 to 100 scale (0 no effect, 100 complete control) after 13 to 15 days; for Plant response rating, Ducksalad: Flood (flooded paddy test), 13 to 15 days; for Ducksalad plant response rating: Flood, 31 g ai/ha, scale 0 to 100 (0 no effect, 100 complete control)
How it was run: as §2

[15] = system: rice (Oryza sativa); experiment: Test B flooded paddy test; conditions: for Plant response rating, Flood, Rice: 250 g ai/ha, flooded paddy test, visual rating on 0 to 100 scale (0 no effect, 100 complete control) after 13 to 15 days; for Plant response rating, Rice: Flood (flooded paddy test), 13 to 15 days; for Rice plant response rating: Flood, 31 g ai/ha, scale 0 to 100 (0 no effect, 100 complete control)
How it was run: as §2

[16] = system: umbrella sedge (Cyperus difformis); experiment: Test B flooded paddy test; conditions: for Plant response rating, Flood, Sedge, Umbrella: 250 g ai/ha, flooded paddy test, visual rating on 0 to 100 scale (0 no effect, 100 complete control) after 13 to 15 days; for Plant response rating, Sedge, Umbrella: Flood (flooded paddy test), 13 to 15 days; for Sedge, Umbrella plant response rating: Flood, 31 g ai/ha, scale 0 to 100 (0 no effect, 100 complete control)
How it was run: as §2

[17] = postemergence, 100 is complete control, 13 to 15 days
[18] = Postemergence, 31 g ai/ha, 0 to 100 scale (0 no effect, 100 complete control)
[19] = Postemergence, 125 g ai/ha, scale 0 to 100 (0 no effect, 100 complete control)
[20] = Postemergence, 250 g ai/ha, scale 0 to 100 (0 no effect, 100 complete control), 13 to 15 days
[21] = 62 g ai/ha, scale of 0 to 100 where 0 is no effect and 100 is complete control
[22] = 125 g ai/ha, scale 0 to 100, 0 is no effect, 100 is complete control
[23] = 31 g ai/ha, postemergence, scale 0 to 100, 0 is no effect, 100 is complete control
[24] = Postemergence, 125 g ai/ha, visual rating after 13 to 15 days, scale 0 (no effect) to 100 (complete control)
[25] = Postemergence, 250 g ai/ha, scale 0 to 100 (0 no effect, 100 complete control)

O=C1CCCC(O)=C1C(=O)c1cnc(-c2ccccc2)n(C2CCOCC2)c1=O [Compound 129]
0: Plant response rating, Oat, Wild [12, 18] | Plant response rating, Barnyardgrass [13, 21] | Barnyardgrass plant response rating [13] | Ducksalad plant response rating [14] | Plant response rating, Rice [15, 21] | Plant response rating, Rice [15, 22] | Rice plant response rating [15] | Plant response rating, Sedge, Umbrella [16, 21] | Sedge, Umbrella plant response rating [16]
10: Plant response rating, Barnyardgrass [13, 22]
70: Plant response rating, Foxtail, Giant [4, 18] | Plant response rating, Johnsongrass [6, 19]
35: Corn plant response rating (0 to 100 scale) [3, 17]
98: Plant response rating, Bermudagrass [1, 20] | Cocklebur plant response rating (0 to 100 scale) [2, 17] | Plant response rating, Cocklebur [2, 19] | Plant response rating, Foxtail, Giant [4, 20] | Plant response rating, Kochia [7, 20] | Plant response rating, Lambsquarters [8, 20] | Plant response rating, Pigweed [9, 19] | Plant response rating, Pigweed [9, 20] | Soybean plant response rating (0 to 100 scale) [11, 17] | Plant response rating, Soybean [11, 19] | Plant response rating, Soybean [11, 20]
40: Plant response rating, Johnsongrass [6, 18]
80: Bermudagrass plant response rating (0 to 100 scale) [1, 17] | Plant response rating, Bermudagrass [1, 18] | Plant response rating, Foxtail, Green [5, 18] | Plant response rating, Kochia [7, 18]
60: Plant response rating, Corn [3, 19] | Plant response rating, Corn [3, 20] | Plant response rating, Flood, Barnyardgrass [13] | Plant response rating, Flood, Sedge, Umbrella [16] | Plant response rating, Sedge, Umbrella [16, 22]
100: Plant response rating, Cocklebur [2, 20] | Plant response rating, Flood, Ducksalad [14]
5: Oat, Wild plant response rating (0 to 100 scale) [12, 17]
20: Plant response rating, Corn [3, 18] | Plant response rating, Oat, Wild [12, 19]
30: Plant response rating, Oat, Wild [12, 20] | Plant response rating, Flood, Rice [15]
95: Plant response rating, Bermudagrass [1, 19] | Plant response rating, Cocklebur [2, 18] | Plant response rating, Foxtail, Green [5, 20] | Kochia plant response rating (0 to 100 scale) [7, 17] | Plant response rating, Kochia [7, 19] | Lambsquarters plant response rating (0 to 100 scale) [8, 17] | Plant response rating, Lambsquarters [8, 19] | Pigweed plant response rating (0 to 100 scale) [9, 17] | Ragweed plant response rating (0 to 100 scale) [10, 17] | Plant response rating, Ragweed [10, 19] | Plant response rating, Ragweed [10, 20] | Plant response rating, Soybean [11, 18]
45: Johnsongrass plant response rating (0 to 100 scale) [6, 17]
85: Foxtail, Giant plant response rating (0 to 100 scale) [4, 17] | Plant response rating, Johnsongrass [6, 20] | Plant response rating, Pigweed [9, 18]
90: Plant response rating, Foxtail, Giant [4, 19] | Foxtail, Green plant response rating (0 to 100 scale) [5, 17] | Plant response rating, Foxtail, Green [5, 19] | Plant response rating, Lambsquarters [8, 18] | Plant response rating, Ragweed [10, 18] | Plant response rating, Ducksalad [14, 21] | Plant response rating, Ducksalad [14, 22]

CCCn1c(-c2ccsc2)ncc(C(=O)C2=C(O)CCCC2=O)c1=O [Compound 93]
98: Plant response rating, Cocklebur [2, 25] | Plant response rating, Kochia [7, 25] | Plant response rating, Lambsquarters [8, 25] | Plant response rating, Ragweed [10, 25] | Plant response rating, Soybean [11, 25]
20: Plant response rating, Rice [15, 22]
30: Barnyardgrass plant response rating [13]
50: Plant response rating, Corn [3, 24] | Plant response rating, Foxtail, Green [5, 23]
0: Plant response rating, Corn [3, 23] | Plant response rating, Oat, Wild [12, 23] | Oat, Wild plant response rating (0 to 100 scale) [12, 17] | Rice plant response rating [15]
10: Plant response rating, Johnsongrass [6, 23] | Johnsongrass plant response rating (0 to 100 scale) [6, 17]
75: Bermudagrass plant response rating (0 to 100 scale) [1, 17] | Ragweed plant response rating (0 to 100 scale) [10, 17] | Plant response rating, Barnyardgrass [13, 22] | Plant response rating, Sedge, Umbrella [16, 21]
80: Foxtail, Giant plant response rating (0 to 100 scale) [4, 17] | Soybean plant response rating (0 to 100 scale) [11, 17] | Plant response rating, Flood, Ducksalad [14] | Plant response rating, Ducksalad [14, 22] | Plant response rating, Sedge, Umbrella [16, 22]
5: Plant response rating, Oat, Wild [12, 25]
100: Plant response rating, Pigweed [9, 25]
65: Plant response rating, Kochia [7, 23] | Plant response rating, Ragweed [10, 23]
70: Plant response rating, Cocklebur [2, 23] | Plant response rating, Foxtail, Giant [4, 23] | Plant response rating, Johnsongrass [6, 25] | Sedge, Umbrella plant response rating [16]
60: Plant response rating, Bermudagrass [1, 23] | Plant response rating, Corn [3, 25] | Foxtail, Green plant response rating (0 to 100 scale) [5, 17] | Plant response rating, Barnyardgrass [13, 21]
55: Plant response rating, Soybean [11, 23] | Plant response rating, Ducksalad [14, 21]
45: Corn plant response rating (0 to 100 scale) [3, 17] | Plant response rating, Flood, Rice [15]
40: Ducksalad plant response rating [14]
95: Plant response rating, Cocklebur [2, 24] | Lambsquarters plant response rating (0 to 100 scale) [8, 17] | Pigweed plant response rating (0 to 100 scale) [9, 17]
90: Cocklebur plant response rating (0 to 100 scale) [2, 17] | Plant response rating, Foxtail, Green [5, 25] | Plant response rating, Pigweed [9, 23] | Plant response rating, Flood, Sedge, Umbrella [16]
15: Plant response rating, Rice [15, 21]
85: Plant response rating, Bermudagrass [1, 24] | Plant response rating, Bermudagrass [1, 25] | Plant response rating, Foxtail, Giant [4, 25] | Kochia plant response rating (0 to 100 scale) [7, 17] | Plant response rating, Lambsquarters [8, 23] | Plant response rating, Flood, Barnyardgrass [13]
